Measurements from patent US11026940B2, “Compositions for the mobilization, homing, expansion and differentiation of stem cells and methods of using the same” (Ampio Pharmaceuticals, Inc., priority 2013, dated 2021).
Several values for one entry are separate records, joined by “and”; a condition that tells them apart may be missing. Identical values can stand only once.

Experiments:
Type in all cases: cell-based, human
TIMP1 = assay: Stem cell chondrogenesis, real time PCR gene expression: TIMP1; settings: Day 22; for Mean regulation / regulation: vs saline; for Mean ΔCp / ΔCp: TIMP1 vs Actin
Procedure: (§1) • Stem Cells: Bone marrow derived human mesenchymal stem cells: Passage 5 Bone marrow derived human mesenchymal stem cells (HUXMA-01001, Cyagen Biosciences, Sunnyvale Calif.) • Mesenchymal Stem Cell Chondrogenic Differentiation medium (GUXMX-90041, Cyagen Biosciences, Sunnyvale Calif.) • TheraPEAK MSCGM chemically defined Stem cell medium (190632 Lonza) • 1 mM Dexamethasone acetate and mifepristone in absolute ethanol (Sigma) • Saline or 0.9% Sodium chloride for injection ZR Flush (Excelsior Medical, Neptune N.J.) • Sterile filtered 0.6 mM sodium caprylate in saline (sigma) • Sterile filtered 3 mM NAT in saline (sigma); To prepare, heat at 60° C. for 30 minutes then sonicate for 5 minutes. • Sterile filtered 10 mM DADKP in saline • 0.2 μM syringe filters • Hepes buffered saline, Trypsin/EDTA, Trypsin neutralizing solution (Lonza reagent pack) • 182 cm2 tissue culture flasks • pipettes and sterile tips • Tissue culture hood, humidified CO2 incubator, water or bead bath • 24 well tissue culture plates • Qiagen RNeasy plus spin columns (Qiagen 74134) • Qiagen RT2 qPCR primer pairs for Collagen 2A1, MMP13, TIMP1, Aggrecan, GAPDH, and Actin B • Roche Sybr green I master mix and Invitrogen Superscript VILO master mix. • Roche 480 lightcycler
(§2) The following stock drug treatment solutions were prepared in saline for injection and warmed to 37° C. in bath: • 4 μM dexamethasone • 4 μM mifepristone • 3 mM NAT • 0.6 mM caprylate • 80 μM DADKP • Mix of 3 mM NAT, 0.6 mM caprylate, 80 μM DADKP (“Ampion” mix)
(§3) Cyagen Chondrogenic Differentiation medium was prepared by manufacturer protocols but excluding dexamethasone and TGF beta 3 supplements, and warmed to 37° C. in bath.
(§4) The treatment protocol included expanding 5 HUXMA stem cells in 182 cm^2 flasks containing 40 mls TheraPEAK™ MSCGM to 80-90% confluence. Cells were trypsinized from the flasks and a 1.0×10^7 cell suspension of HUXMA stem cells was warmed in Cyagen Chondrogenic Differentiation medium. 20 μl of warmed cell suspension was spotted in the middle of each well of a 24-well tissue culture plate (200,000 cells per spot), and incubated at 37° C. and 5% CO2 for one hour.
(§5) The plates were removed from the incubator and an additional 720 μl chondrogenic medium was added to each well. 250 μl saline, or drug solutions were added to the appropriate wells in triplicate (bringing the final drug dilution to one-quarter of the stock drug treatment solution concentrations). 10 μl of TGF beta 3 solution (supplied by Cyagen) was added to each well, and the plates were returned to the incubator.
(§6) RNA isolation and analysis was conducted for all plates as follows at days 7, 14, and 22 post treatment (with the described medium exchanges). […] Qiagen RNeasy plus lysis buffer (with 2mercaptoethanol) was added to each well and gently shaken for 10 minutes. The lysed cell suspensions from each well were transferred to Qiashredder columns and spun at 14,000 rpm for 2 minutes. RNA isolation proceeded by RNeasy™ plus manufacturer's protocol. RNA was eluted from the Qiagen columns using 25 μl RNase free water.
(§7) cDNA synthesis and real time PCR was conducted as follows. First strand synthesis of cDNA from all samples was performed in 20 μl total volume using 10 μl isolated RNA. All cDNA reactions were then diluted with 30 μl nuclease free water. Real time PCR was then performed using 5 μl diluted cDNA, Roche Syber green master mix, and Qiagen RT^2 gPCR™ primer pairs in 20 μl total reaction volume. Relative gene expression was determined by delta deta Ct method.

Collagen 2A1 = assay: Stem cell chondrogenesis, real time PCR gene expression: Collagen 2A1; settings: for Mean regulation / regulation: vs saline; for Mean ΔCp / ΔCp: Collagen 2A1 vs GAPDH; for regulation, Collagen 2A1 / Mean regulation, Collagen 2A1: fold regulation vs saline; for regulation, Collagen 2A1 / ΔCp, Collagen 2A1 / 2^-ΔΔCp vs saline, Collagen 2A1 / ΔΔCp vs saline, Collagen 2A1: single replicate well; for Mean regulation, Collagen 2A1 / Mean ΔCp, Collagen 2A1: triplicate wells; for ΔCp, Collagen 2A1: human bone marrow MSC, chondrogenic medium + TGF beta 3; for ΔCp, Collagen 2A1 / 2^-ΔΔCp vs saline, Collagen 2A1 / ΔΔCp vs saline, Collagen 2A1 / Mean ΔCp, Collagen 2A1: vs Actin
Procedure: as §1, §2, §3, §4, §5, §6, §7

MMP13 = assay: Stem cell chondrogenesis, real time PCR gene expression: MMP13; settings: for regulation, MMP13 / Mean regulation, MMP13 / ΔCp, MMP13 / 2^-ΔΔCp vs saline, MMP13 / ΔΔCp vs saline, MMP13 / Mean ΔCp, MMP13: Day 7; for regulation, MMP13 / Mean regulation, MMP13: fold regulation vs saline; for regulation, MMP13 / ΔCp, MMP13 / 2^-ΔΔCp vs saline, MMP13 / ΔΔCp vs saline, MMP13: single replicate well; for Mean regulation, MMP13 / Mean ΔCp, MMP13: triplicate wells; for ΔCp, MMP13: human bone marrow MSC, chondrogenic medium + TGF beta 3; for ΔCp, MMP13 / 2^-ΔΔCp vs saline, MMP13 / ΔΔCp vs saline, MMP13 / Mean ΔCp, MMP13: vs Actin; for Mean regulation: vs saline; for Mean ΔCp / ΔCp: MMP13 vs GAPDH
Procedure: as §1, §2, §3, §4, §5, §6, §7

Aggrecan = assay: Stem cell chondrogenesis, real time PCR gene expression: Aggrecan; settings: Day 22; for Mean ΔCp / ΔCp: Aggrecan vs Actin; for Mean regulation / regulation: vs saline
Procedure: as §1, §2, §3, §4, §5, §6, §7

SOX9 = assay: Stem cell chondrogenesis, real time PCR gene expression: SOX9; settings: Day 14; for regulation, SOX9 / Mean regulation, SOX9: fold regulation vs saline; for regulation, SOX9 / ΔCp, SOX9 / 2^-ΔΔCp vs saline, SOX9 / ΔΔCp vs saline, SOX9: single replicate well; for Mean regulation, SOX9 / Mean ΔCp, SOX9: triplicate wells; for ΔCp, SOX9: human bone marrow MSC, chondrogenic medium + TGF beta 3; for ΔCp, SOX9 / 2^-ΔΔCp vs saline, SOX9 / ΔΔCp vs saline, SOX9 / Mean ΔCp, SOX9: vs Actin
Procedure: The treatment protocol included expanding 5 HUXMA stem cells in 182 cm^2 flasks containing 40 […] to 80-90% confluence. Cells were trypsinized from the flasks and a 1.0×10^7 cell suspension of HUXMA stem cells was warmed in Cyagen Chondrogenic Differentiation medium. 20 μl of warmed cell suspension was spotted in the middle of each well of a 24-well tissue culture plate (200,000 cells per spot), and incubated at 37° C. and 5% CO2 for one hour. […] Medium exchanges were performed every 3-4 days by aspirating the medium from the wells and replacing with fresh chondrogenic medium, diluted stocks, and TGF beta 3, as described above. […] Medium from the wells was removed and saved for further protein analysis. Qiagen RNeasy plus lysis buffer (with 2mercaptoethanol) was added to each well and gently shaken for 10 minutes. The lysed cell suspensions from each well were transferred to Qiashredder columns and spun at 14,000 rpm for 2 minutes. RNA isolation proceeded by RNeasyTM plus manufacturer's protocol. RNA was eluted from the Qiagen columns using 25 μl RNase free water. cDNA synthesis and real time PCR was conducted as follows. First strand synthesis of cDNA from all samples was performed in 20 μl total volume using 10 μl isolated RNA. All cDNA reactions were then diluted with 30 μl nuclease free water. Real time PCR was then performed using 5 μl diluted cDNA, Roche Syber green master mix, and Qiagen RT^2 gPCRTM primer pairs in 20 μl total reaction volume.

## CCCCCCCC(=O)[O-].[Na+] [Caprylate, sodium caprylate]
TIMP1; TIMP1, Table 12
  Cp TIMP1: 17.65 and 18.77 and 19.77
  Mean regulation: 1.12
TIMP1; TIMP1, Table 16
  Cp TIMP1: 17.65 and 18.77 and 19.77
TIMP1; Table 12
  Mean ΔCp: 3.143
TIMP1; Table 16
  Mean ΔCp: 3.143
Collagen 2A1; Collagen 2A1, Day 22, Table 12
  Cp Coll: 22.93 and 25.6 and 24.26
  Mean regulation: 101.18
Collagen 2A1; Collagen 2A1, Day 22, Table 16
  Cp Coll: 22.93 and 25.6 and 24.26
  Mean regulation: 101.18
Collagen 2A1; Day 22, Table 12
  Mean ΔCp: 6.557
  ΔCp: 6.08 and 7.19 and 6.4
Collagen 2A1; Day 22, Table 16
  Mean ΔCp: 6.557
  ΔCp: 6.08 and 7.19 and 6.4
Collagen 2A1; Day 7
  regulation, Collagen 2A1: 1.63 and −1.05 and −1.11
  Mean regulation, Collagen 2A1: −0.18
  ΔCp, Collagen 2A1: 6.03 and 6.81 and 6.88
  2^-ΔΔCp vs saline, Collagen 2A1: 1.6283 and 0.9482 and 0.9033
  ΔΔCp vs saline, Collagen 2A1: −0.7 and 0.077 and 0.147
  Mean ΔCp, Collagen 2A1: 6.573
Collagen 2A1; Day 14
  regulation, Collagen 2A1: 7.19 and 6.95 and 4.28
  Mean regulation, Collagen 2A1: 6.14
  ΔCp, Collagen 2A1: 8.21 and 8.26 and 8.96
  2^-ΔΔCp vs saline, Collagen 2A1: 7.1934 and 6.9483 and 4.2772
  ΔΔCp vs saline, Collagen 2A1: −2.85 and −2.8 and −2.1
  Mean ΔCp, Collagen 2A1: 8.477
MMP13
  regulation, MMP13: −2.63 and 1.03 and −3.06
  Mean regulation, MMP13: −1.55
  ΔCp, MMP13: 6.03 and 4.59 and 6.25
  2^-ΔΔCp vs saline, MMP13: 0.3807 and 1.0329 and 0.3268
  ΔΔCp vs saline, MMP13: 1.393 and −0.05 and 1.613
  Mean ΔCp, MMP13: 5.623
MMP13; MMP13, Day 22, Table 12
  Cp Coll: 20.28 and 20.31 and 20.73
  Mean regulation: 0.62
MMP13; MMP13, Day 22, Table 16
  Cp Coll: 20.28 and 20.31 and 20.73
  Mean regulation: 0.62
MMP13; Day 22, Table 12
  Mean ΔCp: 2.733
  ΔCp: 3.43 and 1.9 and 2.87
MMP13; Day 22, Table 16
  Mean ΔCp: 2.733
  ΔCp: 3.43 and 1.9 and 2.87
Aggrecan; Table 12
  Mean ΔCp: 7.42
  ΔCp: 6.11 and 9.72 and 6.43
Aggrecan; Table 16
  Mean ΔCp: 7.42
  ΔCp: 6.11 and 9.72 and 6.43
Aggrecan; Aggrecan, Table 12
  Cp Agg: 21.64 and 25.43 and 21.95
  Mean regulation: 10.81
Aggrecan; Aggrecan, Table 16
  Cp Agg: 21.64 and 25.43 and 21.95
  Mean regulation: 10.81
SOX9
  regulation, SOX9: 1.16 and 1.99 and 2.28
  Mean regulation, SOX9: 1.81
  ΔCp, SOX9: 6.97 and 6.19 and 5.99
  2^-ΔΔCp vs saline, SOX9: 1.1567 and 1.9862 and 2.2815
  ΔΔCp vs saline, SOX9: −0.21 and −0.99 and −1.19
  Mean ΔCp, SOX9: 6.383

## CC(=O)OCC(=O)[C@@]1(O)[C@H](C)C[C@H]2[C@@H]3CCC4=CC(=O)C=C[C@]4(C)[C@@]3(F)[C@@H](O)C[C@@]21C [Dexamethasone, Dexamethasone acetate]
TIMP1; TIMP1, Table 12
  Cp TIMP1: 17.35 and 16.81
  Mean regulation: 1.53
  regulation: 1.33 and 1.74 and 1.53
TIMP1; TIMP1, Table 16
  2-^ΔΔCp vs saline: 1.5333 and 1.3256 and 1.7371
  Cp TIMP1: 17.35 and 16.81
  regulation: 1.53 and 1.33 and 1.74
TIMP1; Table 12
  Mean ΔCp: 3.16
  ΔCp: 3.36 and 2.97 and 3.15
TIMP1; Table 16
  Mean ΔCp: 3.16
  ΔCp: 3.15 and 3.36 and 2.97
Collagen 2A1; Collagen 2A1, Day 22, Table 12
  2-^ΔΔCP vs saline: 141.7 and 196.27 and 168.51
  Cp Coll: 22.42 and 21.94 and 21.42
  Mean regulation: 168.82
  regulation: 141.70 and 196.27 and 168.51
Collagen 2A1; Collagen 2A1, Day 22, Table 16
  2^-ΔΔCp vs saline: 141.7 and 196.27 and 168.51
  Cp Coll: 22.42 and 21.94 and 21.42
  Mean regulation: 168.82
  regulation: 141.70 and 196.27 and 168.51
Collagen 2A1; Day 22, Table 12
  Mean ΔCp: 5.76
  ΔCp: 6 and 5.53 and 5.75
Collagen 2A1; Day 22, Table 16
  Mean ΔCp: 5.76
  ΔCp: 6 and 5.53 and 5.75
Collagen 2A1; Day 7
  regulation, Collagen 2A1: −1.01 and 2.61 and 2.72
  Mean regulation, Collagen 2A1: 1.44
  ΔCp, Collagen 2A1: 6.75 and 5.35 and 5.29
  2^-ΔΔCp vs saline, Collagen 2A1: 0.9885 and 2.6087 and 2.7195
  ΔΔCp vs saline, Collagen 2A1: 0.017 and −1.38 and −1.44
  Mean ΔCp, Collagen 2A1: 5.797
Collagen 2A1; Day 14
  regulation, Collagen 2A1: 7.29 and 10.39 and 6.57
  Mean regulation, Collagen 2A1: 8.08
  ΔCp, Collagen 2A1: 8.19 and 7.68 and 8.34
  2^-ΔΔCp vs saline, Collagen 2A1: 7.2938 and 10.387 and 6.5735
  ΔΔCp vs saline, Collagen 2A1: −2.87 and −3.38 and −2.72
  Mean ΔCp, Collagen 2A1: 8.07
MMP13
  regulation, MMP13: −1.62 and 1.64 and 1.33
  Mean regulation, MMP13: 0.45
  ΔCp, MMP13: 5.33 and 3.92 and 4.23
  2^-ΔΔCp vs saline, MMP13: 0.6184 and 1.6434 and 1.3256
  ΔΔCp vs saline, MMP13: 0.693 and −0.72 and −0.41
  Mean ΔCp, MMP13: 4.493
MMP13; MMP13, Day 22, Table 12
  Cp, MMP13: 20.77 and 20.68 and 20.35
  ΔΔCp vs saline: 1.357 and 1.277 and 1.687
  Mean regulation: −2.73
MMP13; MMP13, Day 22, Table 16
  2^-ΔΔCp vs saline: 0.3905 and 0.4127 and 0.3106
  Cp, MMP13: 20.77 and 20.68 and 20.35
  ΔΔCp vs saline: 1.357 and 1.277 and 1.687
  Mean regulation: −2.73
MMP13; Day 22, Table 12
  Mean ΔCp: 4.433
  ΔCp: 4.35 and 4.27 and 4.68
MMP13; Day 22, Table 16
  Mean ΔCp: 4.433
  ΔCp: 4.35 and 4.27 and 4.68
Aggrecan; Table 12
  Mean ΔCp: 6.523
  ΔCp: 6.28 and 6.69 and 6.6
Aggrecan; Table 16
  Mean ΔCp: 6.523
  ΔCp: 6.28 and 6.69 and 6.6
Aggrecan; Aggrecan, Table 12
  2-ΔΔCp vs saline: 15.313 and 11.525 and 12.267
  Cp Agg: 20.48 and 20.68 and 20.44
  Mean regulation: 13.03
  regulation: 15.31 and 11.52 and 12.27
Aggrecan; Aggrecan, Table 16
  2^-ΔΔCp vs saline: 15.313 and 11.525 and 12.267
  Cp Agg: 20.48 and 20.68 and 20.44
  Mean regulation: 13.03
  regulation: 15.31 and 11.52 and 12.27
SOX9
  regulation, SOX9: −2.04 and −1.24 and −1.80
  Mean regulation, SOX9: −1.69
  ΔCp, SOX9: 8.21 and 7.49 and 8.03
  2^-ΔΔCp vs saline, SOX9: 0.4897 and 0.8066 and 0.5548
  ΔΔCp vs saline, SOX9: 1.03 and 0.31 and 0.85
  Mean ΔCp, SOX9: 7.91
